Assay results from ChEMBL document CHEMBL1153874, “Synthesis and biological evaluation of cytotoxic properties of stilbene-based resveratrol analogs” (Eur J Med Chem, 2009).
Values after ≈ are worked out from the molar mass of the structure shown.

Key:
Lytechinus variegatus [1] = experiment: Antimitotic activity in Lytechinus variegatus embryo assessed as inhibition of first cleavage at 43.8 uM relative to control; assay type: functional
HL-60 = experiment: Cytotoxicity against human HL60 cells after 72 hrs by MTT assay; assay type: functional, cell-based; conditions: HL-60, 72 h
HCT-8 = experiment: Cytotoxicity against human HCT8 cells after 72 hrs by MTT assay; assay type: functional, cell-based; conditions: HCT-8, 72 h
PC-3 = experiment: cells; conditions: Homo sapiens, PC-3, 72 h
Description: Cytotoxicity against human PC3 cells after 72 hrs by MTT assay

CCRF-CEM = experiment: Cytotoxicity against human CEM cells after 72 hrs by MTT assay; assay type: cell-based
Lytechinus variegatus [2] = experiment: Antimitotic activity in Lytechinus variegatus embryo assessed as inhibition of third cleavage at 43.8 uM relative to control; assay type: functional
K562 = experiment: Cytotoxicity against human K562 cells after 72 hrs by MTT assay; assay type: functional, cell-based; conditions: K562, 72 h
[3] = Antimitotic activity in Lytechinus variegatus embryo assessed as inhibition of blastula formation at 43.8 uM relative to control; assay type: functional
MDA-MB-435 = experiment: cells; conditions: Homo sapiens, MDA-MB-435, 72 h
Description: Cytotoxicity against human MDA-MB-435 cells after 72 hrs by MTT assay

B16 = experiment: Cytotoxicity against mouse B16 cells after 72 hrs by MTT assay; assay type: functional, cell-based; conditions: B16, 72 h
[4] = Toxicity in mouse erythrocytes assessed as hemolysis at 1.5 to 200 ug/mL after 30 min by spectrophotometry; assay type: cell-based; conditions: erythrocyte, 0.5 h
Lytechinus variegatus [5] = experiment: Antimitotic activity in Lytechinus variegatus embryo assessed as inhibition of third cleavage at 32 uM relative to control; assay type: functional
[6] = Antimitotic activity in Lytechinus variegatus embryo assessed as inhibition of blastula formation at 32 uM relative to control; assay type: functional
Lytechinus variegatus [7] = experiment: Antimitotic activity in Lytechinus variegatus embryo assessed as inhibition of first cleavage at 32 uM relative to control; assay type: functional
Lytechinus variegatus [8] = experiment: Antimitotic activity in Lytechinus variegatus embryo assessed as inhibition of third cleavage at 320 uM relative to control; assay type: functional
[9] = Antimitotic activity in Lytechinus variegatus embryo assessed as inhibition of blastula formation at 320 uM relative to control; assay type: functional
Lytechinus variegatus [10] = experiment: Antimitotic activity in Lytechinus variegatus embryo assessed as inhibition of first cleavage at 320 uM relative to control; assay type: functional
[11] = Antimitotic activity in Lytechinus variegatus embryo assessed as inhibition of blastula formation at 39.4 uM relative to control; assay type: functional
Lytechinus variegatus [12] = experiment: Antimitotic activity in Lytechinus variegatus embryo assessed as inhibition of first cleavage at 394 uM relative to control; assay type: functional
[13] = Antimitotic activity in Lytechinus variegatus embryo assessed as inhibition of blastula formation at 394 uM relative to control; assay type: functional
Lytechinus variegatus [14] = experiment: Antimitotic activity in Lytechinus variegatus embryo assessed as inhibition of third cleavage at 394 uM relative to control; assay type: functional
Lytechinus variegatus [15] = experiment: Antimitotic activity in Lytechinus variegatus embryo assessed as inhibition of third cleavage at 39.4 uM relative to control; assay type: functional
Lytechinus variegatus [16] = experiment: Antimitotic activity in Lytechinus variegatus embryo assessed as inhibition of first cleavage at 39.4 uM relative to control; assay type: functional
Lytechinus variegatus [17] = experiment: Antimitotic activity in Lytechinus variegatus embryo assessed as inhibition of third cleavage at 352 uM relative to control; assay type: functional
Lytechinus variegatus [18] = experiment: Antimitotic activity in Lytechinus variegatus embryo assessed as inhibition of third cleavage at 35.2 uM relative to control; assay type: functional
Lytechinus variegatus [19] = experiment: Antimitotic activity in Lytechinus variegatus embryo assessed as inhibition of first cleavage at 35.2 uM relative to control; assay type: functional
Lytechinus variegatus [20] = experiment: Antimitotic activity in Lytechinus variegatus embryo assessed as inhibition of first cleavage at 352 uM relative to control; assay type: functional
[21] = Antimitotic activity in Lytechinus variegatus embryo assessed as inhibition of blastula formation at 35.2 uM relative to control; assay type: functional
[22] = Antimitotic activity in Lytechinus variegatus embryo assessed as inhibition of blastula formation at 352 uM relative to control; assay type: functional
Lytechinus variegatus [23] = experiment: Antimitotic activity in Lytechinus variegatus embryo assessed as inhibition of third cleavage at 41.7 uM relative to control; assay type: functional
Lytechinus variegatus [24] = experiment: Antimitotic activity in Lytechinus variegatus embryo assessed as inhibition of first cleavage at 41.7 uM relative to control; assay type: functional
Lytechinus variegatus [25] = experiment: Antimitotic activity in Lytechinus variegatus embryo assessed as inhibition of first cleavage at 417 uM relative to control; assay type: functional
Lytechinus variegatus [26] = experiment: Antimitotic activity in Lytechinus variegatus embryo assessed as inhibition of third cleavage at 417 uM relative to control; assay type: functional
[27] = Antimitotic activity in Lytechinus variegatus embryo assessed as inhibition of blastula formation at 41.7 uM relative to control; assay type: functional
[28] = Antimitotic activity in Lytechinus variegatus embryo assessed as inhibition of blastula formation at 417 uM relative to control; assay type: functional
Lytechinus variegatus [29] = experiment: Antimitotic activity in Lytechinus variegatus embryo assessed as inhibition of first cleavage at 184 uM relative to control; assay type: functional
Lytechinus variegatus [30] = experiment: Antimitotic activity in Lytechinus variegatus embryo assessed as inhibition of third cleavage at 18.4 uM relative to control; assay type: functional
[31] = Antimitotic activity in Lytechinus variegatus embryo assessed as inhibition of blastula formation at 184 uM relative to control; assay type: functional
Lytechinus variegatus [32] = experiment: Antimitotic activity in Lytechinus variegatus embryo assessed as inhibition of first cleavage at 18.4 uM relative to control; assay type: functional
[33] = Antimitotic activity in Lytechinus variegatus embryo assessed as inhibition of blastula formation at 18.4 uM relative to control; assay type: functional
Lytechinus variegatus [34] = experiment: Antimitotic activity in Lytechinus variegatus embryo assessed as inhibition of third cleavage at 184 uM relative to control; assay type: functional
Lytechinus variegatus [35] = experiment: Antimitotic activity in Lytechinus variegatus embryo assessed as inhibition of third cleavage at 370 uM relative to control; assay type: functional
Lytechinus variegatus [36] = experiment: Antimitotic activity in Lytechinus variegatus embryo assessed as inhibition of first cleavage at 370 uM relative to control; assay type: functional
[37] = Antimitotic activity in Lytechinus variegatus embryo assessed as inhibition of blastula formation at 37 uM relative to control; assay type: functional
Lytechinus variegatus [38] = experiment: Antimitotic activity in Lytechinus variegatus embryo assessed as inhibition of third cleavage at 37 uM relative to control; assay type: functional
Lytechinus variegatus [39] = experiment: Antimitotic activity in Lytechinus variegatus embryo assessed as inhibition of first cleavage at 37 uM relative to control; assay type: functional
[40] = Antimitotic activity in Lytechinus variegatus embryo assessed as inhibition of blastula formation at 370 uM relative to control; assay type: functional

Row | Compound | IC50 (HL-60) | IC50 (HCT-8) | IC50 (PC-3) | IC50 (CCRF-CEM) | IC50 (K562) | IC50 (MDA-MB-435) | IC50 (B16) | Activity [4] | inhibition (Lytechinus variegatus [23]) | inhibition (Lytechinus variegatus [24]) | inhibition (Lytechinus variegatus [25]) | inhibition (Lytechinus variegatus [26]) | inhibition at 41.7 µM [27] | inhibition at 417 µM [28] | further results
1 | Oc1ccc(/C=C/c2cc(O)cc(O)c2)cc1 [RESVERATROL] | 2.45 µg/mL (≈ 10.7 µM) | 5.82 µg/mL (≈ 25.5 µM) | 3.51 µg/mL (≈ 15.4 µM) | 5.91 µg/mL (≈ 25.9 µM) | 9.62 µg/mL (≈ 42.1 µM) | 13.8 µg/mL (≈ 60.5 µM) | 14.3 µg/mL (≈ 62.9 µM) | Non-toxic | – | – | – | – | – | – | inhibition (Lytechinus variegatus [1]): 97.9%; inhibition (Lytechinus variegatus [2]): 100%; inhibition at 43.8 µM [3]: 100%
2 | COc1cc(/C=C(/C(=O)O)c2ccccc2)ccc1OC(C)=O | > 25 µg/mL | > 25 µg/mL | > 25 µg/mL | > 25 µg/mL | > 25 µg/mL | > 25 µg/mL | > 25 µg/mL | Non-toxic | – | – | – | – | – | – | inhibition (Lytechinus variegatus [5]): 2.3%; inhibition at 32 µM [6]: 5%; inhibition (Lytechinus variegatus [7]): 0%; inhibition (Lytechinus variegatus [8]): 100%; inhibition at 320 µM [9]: 100%; inhibition (Lytechinus variegatus [10]): 100%
3 | COc1ccc(/C=C(/C(=O)O)c2ccccc2)cc1 | > 25 µg/mL | > 25 µg/mL | > 25 µg/mL | > 25 µg/mL | > 25 µg/mL | > 25 µg/mL | > 25 µg/mL | Non-toxic | – | – | – | – | – | – | inhibition at 39.4 µM [11]: 0.3%; inhibition (Lytechinus variegatus [12]): 0%; inhibition at 394 µM [13]: 68.7%; inhibition (Lytechinus variegatus [14]): 9.3%; inhibition (Lytechinus variegatus [15]): 3.6%; inhibition (Lytechinus variegatus [16]): 0%
4 | COc1ccc(/C=C(/C(=O)O)c2ccccc2)cc1OC | > 25 µg/mL | > 25 µg/mL | > 25 µg/mL | > 25 µg/mL | > 25 µg/mL | > 25 µg/mL | > 25 µg/mL | Non-toxic | – | – | – | – | – | – | inhibition (Lytechinus variegatus [17]): 0%; inhibition (Lytechinus variegatus [18]): 0%; inhibition (Lytechinus variegatus [19]): 4.3%; inhibition (Lytechinus variegatus [20]): 3%; inhibition at 35.2 µM [21]: 0.7%; inhibition at 352 µM [22]: 0.7%
5 | COc1ccc(/C=C\c2ccccc2)cc1OC | 6.42 µg/mL (≈ 26.7 µM) | > 25 µg/mL | > 25 µg/mL | > 25 µg/mL | 6.38 µg/mL (≈ 26.5 µM) | 6.08 µg/mL (≈ 25.3 µM) | > 25 µg/mL | Non-toxic | 100% | 0% | 100% | 100% | 100% | 100% | –
6 | O=C(O)/C(=C/c1ccccc1O)c1ccccc1 | > 25 µg/mL | > 25 µg/mL | > 25 µg/mL | > 25 µg/mL | > 25 µg/mL | > 25 µg/mL | > 25 µg/mL | Non-toxic | 96.3% | 12.3% | 44.5% | 100% | 97.3% | 95.4% | –
7 | COc1cccc2c1C(=O)c1c(O)c3c(c(O)c1C2=O)C[C@@](O)(C(=O)CO)C[C@@H]3O[C@H]1C[C@H](N)[C@H](O)[C@H](C)O1 [DOXORUBICIN] | – | – | 0.45 µg/mL (≈ 0.828 µM) | 0.02 µg/mL (≈ 0.0368 µM) | 0.14 µg/mL (≈ 0.258 µM) | – | – | – | – | – | – | – | – | – | inhibition (Lytechinus variegatus [29]): 100%; inhibition (Lytechinus variegatus [30]): 100%; inhibition at 184 µM [31]: 100%; inhibition (Lytechinus variegatus [32]): 100%; inhibition at 18.4 µM [33]: 100%; inhibition (Lytechinus variegatus [34]): 100%
8 | COc1cc(/C=C(/C(=O)O)c2ccccc2)ccc1O | > 25 µg/mL | > 25 µg/mL | > 25 µg/mL | > 25 µg/mL | > 25 µg/mL | 17.8 µg/mL (≈ 65.7 µM) | > 25 µg/mL | Non-toxic | – | – | – | – | – | – | inhibition (Lytechinus variegatus [35]): 7.3%; inhibition (Lytechinus variegatus [36]): 0%; inhibition at 37 µM [37]: 5.3%; inhibition (Lytechinus variegatus [38]): 7.6%; inhibition (Lytechinus variegatus [39]): 0%; inhibition at 370 µM [40]: 99.7%
9 | COc1ccc(/C=C/c2ccccc2)cc1OC | > 25 µg/mL | > 25 µg/mL | > 25 µg/mL | > 25 µg/mL | > 25 µg/mL | > 25 µg/mL | > 25 µg/mL | Non-toxic | 6% | 0% | 0% | 100% | 83% | 100% | –
